This is an account of results in patent publication US20080220056A1, “Treatment for liver disease” (UNIVERSITY OF SOUTHAMPTON, priority 2002, published 2008).

What all share (type): cell-based
The test system of one data set is rat hepatocytes. Description: Rat hepatocyte viability by attachment and trypan blue exclusion. The settings on record: 50 μmol/L gliotoxin, four hours. The method, then: Rat hepatocytes were isolated by collagenase perfusion essentially as previously described. (Harvey et al., Biochemical J., (1998) 331:273-281). Hepatocytes were cultured as outlined for hepatic stellate cells except that they were initially seeded onto collagen coated plates in William's medium E supplemented with 10% fetal calf serum and 1 μg/mL insulin for the first 2 hours.
Cells were treated with gliotoxin dissolved in DMSO vehicle (added to medium from a 2000-fold molar concentrated stock). Control cells received DMSO vehicle only (i.e., 0.05% vol/vol). All other additions to culture medium were made from concentrated stocks dissolved in DMSO or by direct addition to culture medium. Protein contents of wells were determined using the Lowry assay (Lowry et al., J. Biol. Chem., (1951)193: 265-275).
The effect of various compounds on cell viability and attachment was determined. Viability of rat hepatocytes as judged by attachment and 0.1% (wt/vol) trypan blue exclusion after four hours treatment with: […]

Data set [1] deals with mitochondrial permeability transition in rat hepatic stellate cells. As to the kind of experiment: Confocal microscopy of calcein/TMRM (mitochondrial permeability transition). As to conditions: 1.5 μmol/L gliotoxin. The method, then:
Intracellular calcium concentrations were examined by preloading activated hepatic stellate cells seeded onto 35-mm diameter dishes with 2.5 μmol/L Fluo-3AM for two hours. Mitochondrial integrity was determined by coloading cells with […] TMRM and 1 μmol/M calcein-AM for three hours. After loading, the culture medium was removed and the cells were washed extensively with confocal buffer (145 mmol/L NaCl, 5 mml/L KCl, 1 mmol/L MgSO4, 1 mmol/L NaH2PO4, 10 mmol/L HEPES, 25 mmol/L glucose, 1 mmol/L CaCl2 and 2 mg/mL bovine serum albumin, pH 7.4) and incubated at 37° C. in 2 mL confocal buffer containing 1.5 μmol/L gliotoxin or DMSO vehicle control.
Fluorescence images were collected at 1 μm intervals using an Olympus BX50WI microscope fitted with the Biorad microradiance confocal scanning system.
Fluo-3 and calcein fluorescence were excited at 488 nm and collected at 515-530 nm using a band width filter. TMRM was excited at 543 nm and collected at wavelengths greater than 570 nm.
Culture activated rat hepatic cells (14 day) were loaded with calcein (green fluorescence) and TMRM (red fluorescence) and then treated with either 0.05% (vol/vol) DMSO vehicle or alternatively 1.5 μmol/L gliotoxin. Green fluorescence and red fluorescence were imaged at regular time points as outlined in Materials and Methods and the results obtained were typical for at least three separate experiments.

For data set [2], the system named is NF-kB DNA binding activity. Description: Electromobility shift assay for NF-kB DNA binding activity in rat hepatic stellate cells. As to conditions: activated rat HSC. The method, then: Crude high salt extractable nuclear protein was prepared from activated hepatic stellate cells for analysis of NF-kB DNA binding activity essentially as described (Elsharkawy et al., supra), aliquoted and stored at −80° C. until required. Extract protein concentrations were determined using the Lowry colorimetric assay (Lowry et al., supra) with bovine serum albumin as standard. A double stranded 5′ end labeled radiolabeled oligonucleotide [sense 5′-[…]-[…] (SEQ ID NO:1)] containing a consensus NF-kB DNA binding site as underlined (Baldwin et al., Annu. Rev. Immunol., (1996) 14:649-681) was used to determine NFkB DNA binding activity in crude nuclear extracts (Elsharkawy et al., supra).
The effect of gliotoxin on NF-kB activity in hepatic stellate cells was investigated. Culture-activated (14-day) rat hepatic stellate cells were incubated in the presence or absence of 10 ng/mL TNF-α fifteen minutes after addition of:
After a further 30 minutes, and before any significant morphologic changes, cells were washed with ice-cooled PBS, nuclear extracts prepared, and NF-kB DNA binding activity assessed by gel shift analysis. […] Each lane contained […] of protein and the results were the same for at least three separate experiments.

For data set [3], the system named is rat hepatic stellate cells. As to the kind of experiment: Low molecular weight DNA fragmentation (nucleosomal ladder) in rat hepatic stellate cells. The settings on record: 37.5 μmol/L gliotoxin.
A further data set deals with Bcl-2 protein. As to the kind of experiment: Western blotting for Bcl-2 in hepatic stellate cells. The settings on record: cycloheximide 18 hours with TIMP-1 (200 ng/ml and 100 ng/ml both printed) versus cycloheximide alone. As to the method:
Cultured hepatic stellate cells were harvested with a sterile cell scraper, pelleted by centrifugation, and then resuspended in 500 μl of TE buffer (10 mmol/Tris-HCl, 1 mmol/liter EDTA, pH 8.0) before sonication for 15 min. 100 μl of PicoGreen (Molecular Probes, Inc., Eugene, Oreg.) at 1:200 dilution was added to 100 μl of sample and incubated in the dark at room temperature for 5 min. Standards were made from herring sperm DNA. Fluorescence was measured using a Cytofluor II Microwell Fluorescence reader (Perceptive Biosystems, Framingham, Mass.) at standard wavelengths (excitation 485 nm, emission 530 nm). Concentrations of double-stranded DNA in the samples were calculated from the standard curve. […]
The protein Bcl-2 regulates the properties of cells to undergo apoptosis by interpolating into the mitochondria membrane (Hengartner, supra). […] To define changes in the protein level of Bcl-2, extracts from hepatic stellate cells treated with cycloheximide for 18 hours, either in the presence and absence of 200 ng/ml TIMP-1, were analyzed by western blotting. Equal quantities (determined by protein concentration) of protein extracts from hepatic stellate cells exposed to: serum alone; cycloheximide alone; or cycloheximide with TIMP-1 protein (100 ng/ml) were assessed by blotting.

As for `CN1C(=O)[C@]23CC4=CC=C[C@H](O)[C@H]4N2C(=O)[C@@]1(CO)SS3` [gliotoxin], the “hepatocytes that do not exclude 0.1% (wt/vol) trypan blue” value in the data set on rat hepatocytes is “approximately 90%”. The “hepatocyte attachment to the substratum / membrane integrity” value with rat hepatocytes (10 ng/mL TNF-α with 10 μmol/L cycloheximide) is reported as “significant reductions in cell attachment to the substratum”. Further, in data set [1], the “TMRM fluorescence (mitochondrial permeability)” value is “loss of TMRM fluorescence at four hours”. Also, the “TNF-α-inducible NF-kB DNA binding activity” value in data set [2] (10 ng/mL TNF-α, same concentrations as for constitutive activity) is given as “inhibits TNF-α-inducible NF-kB DNA binding activity”. Besides, the “constitutive NF-kB DNA binding activity” value in data set [2] (gliotoxin 1.5 μmol/L, N-acetyl cysteine 5 mM, calpain inhibitor 1 50 μM, dexamethasone 0.5 μm, pentoxyfilline 3.6 mM) is “does not have a marked inhibitory effect”. Moreover, the “level of DNA cleavage at high concentration versus lower concentrations” value in data set [3] was “reduction in the level of DNA cleavage detected”.
As to “TIMP-1: recombinant tissue inhibitor of matrix metalloproteases 1 (Biogenesis)”, the Bcl-2 protein expression result in the data set with Bcl-2 protein was “enhanced levels of Bcl-2 protein expression”.
